Source: the NIST ThermoML archive (doi:10.1016/j.jct.2006.12.013)
± gives the expanded uncertainty stated by the source.

Settings: Liquid

SMILES | vapor or sublimation pressure (313.15 K) [kPa] | vapor or sublimation pressure (323.15 K) [kPa] | vapor or sublimation pressure (333.15 K) [kPa] | vapor or sublimation pressure (343.15 K) [kPa] | vapor or sublimation pressure (363.15 K) [kPa] | vapor or sublimation pressure (353.15 K) [kPa]
CC(F)F [1,1-difluoroethane] | 909 ± 6 | 1181 ± 7 | 1509 ± 10 | 1898 ± 12 | 2901 ± 18 | –
CCCC [butane] | 377 ± 3 | 495 ± 4 | 638 ± 4 | 810 ± 5 | 1249 ± 8 | 1012 ± 6
